In patent publication US4624950A, “Method for treating atherosclerosis hyperlipidema, lipid deposition on arterial walls, or raising the ratio of high density lipoprotein cholesterol to total cholesterol in serum” (Nissan Chemical Industries Ltd., priority 1983, dated 1986):

Assays:
[1] = system: Triton-induced hyperlipidemic rats; assay: Antihyperlipidemic activity in Triton-induced hyperlipidemic rats, method A (24 hours) (Test 2); type: in vivo, rat (male S.D.)
Method: (§1) Cholesterol in serum was measured by means of a cholesterol measuring kit (Cholesterol C-Test Wako, manufactured by Wako Junyaku Co., Ltd.), and cholesterol in HDL was measured by means of NC Hi-Set, manufactured by Nippon Chemiphar Co., Ltd. The quantitative analysis of triglyceride was conducted by means of a triglyceride measuring kit (Triglyceride C-II-Test Wako, manufactured by Wako Junyaku Co., Ltd.). Further, the change rate in the following Tables, was calculated by the following equation. Change rate(%)=(A-B/A)×100 where A is the amount of serum lipids (mg/dl) of the control group, and B is the amount of serum lipids (mg/dl) of the group to which the therapeutic agent was administered. The antihyperlipidemic activity in Triton-induced hyperlipidemic rats Male S.D. rats weighing 230-250 g (7 weeks old) were divided into groups of 5 rats each and injected with a physiological saline solution of Triton Wr-1339 in a dose of 250 mg/kg (5 ml/kg) i.v. through the tail vein. […] The test compounds suspended in 0.5% CMC-Na were given to the rats in an amount of 2 ml/kg via stomach tube 1 hour before and 5 hours after (in the case of method A) or 1 hour before and 23 hours after (in the case of method B) the injection of Triton solution. Control rats received the same volume of the vehicle. The animals were fasted during the experimental period. The total cholesterol and triglyceride in the serum were measured.

[2] = system: Triton-induced hyperlipidemic rats; assay: Antihyperlipidemic activity in Triton-induced hyperlipidemic rats, method B (43 hours) (Test 2); type: in vivo, rat (male S.D.)
Method: as §1

[3] = system: emulsion-induced hyperlipidemic rats; assay: Antihyperlipidemic activity in emulsion-induced hyperlipidemic rats (Test 1); type: in vivo, rat (male S.D.); conditions: 300 mg/kg/day p.o., 3 days
Method: The daily dose of the compound of the formula I is from 0.01 to 3.0 g, preferably from 0.1 to 1.5 g, for an adult. It is administered from once to three times per day. The dose may of course be varied depending upon the age, the weight or the condition of illness of the patient. Now, the usefulness of the compound of the formula I as an antiatherosclerotic agent will be shown by tests. In the following tests, the fractionation of lipoproteins was conducted by a dextran sulfate-MgCl2 precipitation method.
(§2) Cholesterol in serum was measured by means of a cholesterol measuring kit (Cholesterol C-Test Wako, manufactured by Wako Junyaku Co., Ltd.), and cholesterol in HDL was measured by means of NC Hi-Set, manufactured by Nippon Chemiphar Co., Ltd. The quantitative analysis of triglyceride was conducted by means of a triglyceride measuring kit (Triglyceride C-II-Test Wako, manufactured by Wako Junyaku Co., Ltd.).
(§3) Further, the change rate in the following Tables, was calculated by the following equation.
(§4) Change rate(%)=(A-B/A)×100
(§5) where A is the amount of serum lipids (mg/dl) of the control group, and B is the amount of serum lipids (mg/dl) of the group to which the therapeutic agent was administered.
The antihyperlipidemic activity in emulsion-induced hyperlipidemic rats
Male S.D. rats weighing 80-90 g (4 weeks old) were used. They were divided into groups of 5 to 6 rats each. The test compounds suspended in 0.5% CMC-Na(carboxymethyl cellulose sodium salt) were given to the rats in a daily dose of 4 ml/kg via stomach tube every 10:00 a.m. After 30 min., lipids emulsion having the following composition was orally given to the rats in an amount of 2.5 ml per rat. During the experimental period of 3 days, the rats were fed on a standard commercial diet and water ad libitum. […] The total cholesterol and triglyceride, and HDL cholesterol were measured.

[4] = system: cholesterol-fed hyperlipidemic rats; assay: Antihyperlipidemic activity in cholesterol-fed hyperlipidemic rats (Test 3); type: in vivo, rat (male S.D.)
Method: (§6) It is administered from once to three times per day. The dose may of course be varied depending upon the age, the weight or the condition of illness of the patient. […] In the following tests, the fractionation of lipoproteins was conducted by a dextran sulfate-MgCl2 precipitation method.
as §2, §3
Change rate(%)=(A-B/A)×100 where A is the amount of serum lipids (mg/dl) of the control group, and B is the amount of serum lipids (mg/dl) of the group to which the therapeutic agent was administered.
The antihyperlipidemic activity in cholesterol-fed hyperlipidemic rats
Male S.D. rats weighing 80-90 g (30 days old) were divided into groups of 5 rats each. The test compounds suspended in 0.5% CMC-Na were given to the rats in a daily dose of 0.4 ml per 100 g rat via stomach tube every 10:00 a.m. for 7 or 14 days. Control groups were given an equal volume of the vehicle. […] The total cholesterol, triglyceride and HDL cholesterol in serum were measured. After sacrificed, the livers were excised, washed with physiological saline, blotted on filter paper and weighed. The degree of hepatomegaly was calculated by the following equation.
Degree of hepatomegaly (%)=(D-C/C)×100 where C is the liver weight (g) per 100 g body weight in the control animal, and D is the liver weight (g) per 100 g body weight in the drug treated animal.

[5] = system: normal rats; assay: Activities against serum lipid, degree of hepatomegaly and GOT/GPT in normal rats (Test 5); type: in vivo, rat (male S.D.); conditions: 300 mg/kg/day, seven days
Method: as §6, §2, §3, §4, §5
The activities against serum lipid, the degree of hepatomegaly and the hepatic drug metabolizing systems of normal rats
Male S.D. rats (6 weeks old) were divided into groups of 5 rats each. The test compounds suspended in 5% gum arabic were given to the rats once a day for seven days in a daily dose of 300 mg/kg. Then, the rats were fasted for one day, blood samples were taken, and the total cholesterol, triglyceride, HDL-cholesterol in the serum were quantitatively analyzed. Further, the liver weight was measured, and the degree of hepatomegaly was determined by comparing the weight ratio per 100 g of the body weight with that of the control group. Furthermore, GOT and GPT values were measured, and the activities of cytochrome P-450 and glutathione related enzymes were also measured. These values were compared with those of the control groups to investigate any abnormality.

[6] = reported for the agent and its derivatives; cited from earlier work
[7] = animal experiments; Svoboda and Azarnoff, Cancer Res. 39, 3419 (1979); cited from earlier work

CCC(C)(Oc1ccc(C2(c3ccc(OC(C)(CC)C(=O)O)cc3)CCCCC2)cc1)C(=O)O (stereo not shown) [Clinofibrate]
Change rate after 24 hours, Chol ([1]; 150 mg/kg p.o.): -21.0% | Change rate after 24 hours, TG ([1]; 150 mg/kg p.o.): -33.0% | Change rate after 43 hours, Chol ([2]; 150 mg/kg p.o.): -38.0% | Change rate after 43 hours, TG ([2]; 150 mg/kg p.o.): -52.0%

CCOC(=O)C(C)(C)Oc1ccc(Cl)cc1 [Clofibrate, reference compound]
Serum lipid, HDL-Chol [3]: 16.8 mg/dL | Serum lipid, TG [3]: 87.7 mg/dL | Serum lipid, Total Chol [3]: 96.4 mg/dL | Change rate, HDL-Chol ([3]; vs control): +37.0% | Change rate, TG ([3]; vs control): -42.7% | Change rate, Total Chol ([3]; vs control): -63.5% | Change rate after 24 hours, Chol ([1]; 300 mg/kg p.o.): -5.0% | Change rate after 24 hours, TG ([1]; 300 mg/kg p.o.): +89.7% | Change rate after 43 hours, Chol ([2]; 300 mg/kg p.o.): -0.5% | Change rate after 43 hours, TG ([2]; 300 mg/kg p.o.): +150.1% | Change rate, HDL-Chol ([4]; 7th day, 50 mg/kg/day p.o.): -20.4% | Change rate, TG ([4]; 7th day, 50 mg/kg/day p.o.): +8.7% | Change rate, Total-Chol ([4]; 7th day, 50 mg/kg/day p.o.): -4.3% | Degree of hepatomegaly ([4]; 7th day, 50 mg/kg/day p.o.): +6.0% | Serum lipid, HDL-Chol ([4]; 7th day, 50 mg/kg/day p.o.): 14.4 mg/dL | Serum lipid, TG ([4]; 7th day, 50 mg/kg/day p.o.): 133.5 mg/dL | Serum lipid, Total-Chol ([4]; 7th day, 50 mg/kg/day p.o.): 417.5 mg/dL | Change rate, HDL-Chol ([4]; 7th day, 150 mg/kg/day p.o.): -34.8% | Change rate, TG ([4]; 7th day, 150 mg/kg/day p.o.): -9.0% | Change rate, Total-Chol ([4]; 7th day, 150 mg/kg/day p.o.): -23.8% | Degree of hepatomegaly ([4]; 7th day, 150 mg/kg/day p.o.): +20.0% | Serum lipid, HDL-Chol ([4]; 7th day, 150 mg/kg/day p.o.): 11.8 mg/dL | Serum lipid, TG ([4]; 7th day, 150 mg/kg/day p.o.): 111.8 mg/dL | Serum lipid, Total-Chol ([4]; 7th day, 150 mg/kg/day p.o.): 332.2 mg/dL | Change rate, HDL-Chol ([4]; 14th day, 50 mg/kg/day p.o.): +8.0% | Change rate, TG ([4]; 14th day, 50 mg/kg/day p.o.): -30.1% | Change rate, Total-Chol ([4]; 14th day, 50 mg/kg/day p.o.): -28.5% | Degree of hepatomegaly ([4]; 14th day, 50 mg/kg/day p.o.): +8.8% | Serum lipid, HDL-Chol ([4]; 14th day, 50 mg/kg/day p.o.): 9.4 mg/dL | Serum lipid, TG ([4]; 14th day, 50 mg/kg/day p.o.): 116.6 mg/dL | Serum lipid, Total-Chol ([4]; 14th day, 50 mg/kg/day p.o.): 418.4 mg/dL | Change rate, HDL-Chol ([4]; 14th day, 150 mg/kg/day p.o.): +68.1% | Change rate, TG ([4]; 14th day, 150 mg/kg/day p.o.): -29.8% | Change rate, Total-Chol ([4]; 14th day, 150 mg/kg/day p.o.): -28.3% | Degree of hepatomegaly ([4]; 14th day, 150 mg/kg/day p.o.): +22.8% | Serum lipid, HDL-Chol ([4]; 14th day, 150 mg/kg/day p.o.): 15.8 mg/dL | Serum lipid, TG ([4]; 14th day, 150 mg/kg/day p.o.): 117.7 mg/dL | Serum lipid, Total-Chol ([4]; 14th day, 150 mg/kg/day p.o.): 420.0 mg/dL | Serum lipid, HDL-Chol [5]: 11.0 mg/dL | Serum lipid, TG [5]: 39.2 mg/dL | Serum lipid, Total-Chol [5]: 20.6 mg/dL | Change rate, HDL-Chol ([5]; vs control): -62.7% | Change rate, TG ([5]; vs control): -17.5% | Change rate, Total-Chol ([5]; vs control): -56.0% | Degree of hepatomegaly ([5]; vs control): +72.0% | Reported side effects [6]: myalgia or hepatic insufficiency, and they are likely to lead to gallstone formation | Hepatic carcinoma [7]: brings about hepatic carcinoma

O=C(O)c1cccnc1 [nicotinic acid]
Reported side effects [6]: flashing or gastroenteric troubles
